Experimental data taken from patent US12721832B2, “Anti-senescence plant polyphenol drug downregulating senescence-related secretory phenotype and use thereof” (BYHEALTH CO., LTD., priority 2021, dated 2026).

How the values were obtained:
aged C57BL/6 mice = assay: Lifespan study in aged C57BL/6 mice; type: in vivo; details: from age 24-27 months
Experimental: Starting at 24 to 27 months of age, C57BL/6 mice received intraperitoneal administration of vehicle or PCC1 every two weeks (n=80 for vehicle group; n=91 for PCC1 group). The median survival of animals in each group was calculated and indicated. ****, P<0.0001.
Starting at 24 to 27 months of age, C57BL/6 mice received intraperitoneal administration of vehicle or PCC1 every two weeks (n=80 for vehicle group; n=91 for PCC1 group). The median lifetime survival of animals in each group was calculated and indicated. ****, P <0.0001.
For the cell transplantation study, we obtained […] male C57BL/6 mice by serial rearing in the SPF animal platform, with 4 to 5 animals per cage. We first sorted the mice by body weight from low to high, and then selected mice with similar body weights. Next, the mice were assigned to senescence (SEN) or control (CTRL) transplant treatment at each interval using a random number generator, while the middle mice were assigned to the other treatment, so that the body weights of the senescence and control transplant mice were matched. One month after cell transplantation, when the mice were 18 months old, physical function tests were performed. After that, no further testing was done on the mice other than checking their cages. The earliest deaths occurred approximately 2 months after the last physical function test. […]

PSC27 cells [1] = assay: Flow cytometry of apoptosis of PSC27; type: cell-based, human
From the text: Q2, distribution area of early apoptotic cells; Q3, distribution area of late apoptotic cells.

PSC27 cells [2] = assay: CCK8 cell viability of proliferating and senescent PSC27 under increasing PCC1; type: cell-based, human
Experimental: P value at each PCC1 concentration is the significant difference after comparison between CTRL and BLEO groups. **, P<0.01; ***, P<0.001; ****, P<0.0001.
Pharmacodynamic analysis was conducted on a natural product library (BY-HEALTH) with a total of 41 components, most of which were medicinal plant extracts and had anti-senescence potential. Each product was diluted to a 96-well plate according to a certain concentration gradient, and the density was 5000 cells per well. The medium uses DMEM, and the working concentration of natural product (or compound) is generally controlled at 1 μM to 1 mM. After 3-7 days of drug treatment, cell proliferation was measured with CCK-8 Cell Counting Kit (based on WST-8 principle, Vazyme), and cell apoptosis activity was determined with Caspase 3/7 Activity Kit (Promega).

[3] = test system: PC3/PSC27 xenograft tumors; assay: PC3/PSC27 xenograft tumor terminal volume in NOD/SCID mice; type: in vivo; details: end of 8th week
From the text: Every two weeks was a dosing cycle, and MIT (mitoxantrone) was intraperitoneally administered to the mice on the first day of the 3rd/5th/7th weeks. From the first day of the 5th week, the mice were intraperitoneally administrated with PCC1, once a week. After the 8-week course of treatment, the mice were dissected for pathological identification and expression analysis.
Chemotherapeutic drug MIT alone or together with anti-senescence drug PCC1 was used to administer mice, and after the 8th week, the tumor size of each group was compared and analyzed.
All experimental mouse experiments were carried out in strict accordance with the relevant regulations of the Institutional Animal Care and Use Committee (IACUC), Shanghai Institutes for Biological Sciences, Chinese Academy of Sciences. Immunodeficient mice (NOD-SCID mice, ICR) (body weight about 25 g) aged 6-8 weeks were used for animal experiments related to the present patent. Stromal cells PSC27 and epithelial cells PC3 were mixed at a predetermined ratio of 1:4, and each graft contained 1.25×10^6 cells for tissue remodeling. The xenograft tumors were implanted into mice by subcutaneous transplantation, and the animals were euthanized 8 weeks after the end of the transplantation surgery. Tumor volume was calculated according to the following formula: V=(π/6)×[…] (V, volume; l, length; w, width).
In a preclinical treatment trial, subcutaneously transplanted mice were fed with a standard experimental diet, after 2 weeks chemotherapy drugs mitoxantrone (MIT, dose: 0.2 mg/kg) and/or procyanidin C1 (PCC1) (500 μl, dose: 10 mg/kg) via intraperitoneal administration. The time points were: the former was administrated on the first day of the 3rd, 5th and 7th weeks, and the latter was administrated on the first day of the 5th and 7th weeks. A total of 3 cycles of MIT administration were carried out throughout the course of treatment, and each cycle lasted for 2 weeks. After the course of treatment, mouse tumors were harvested for volume measurement and histological analysis. Each mouse cumulatively received 0.6 mg/kg body weight of MIT and […] body weight of PCC1. In order to cause systemic expression of SASP factor induced by chemotherapy, MIT was administered to mice through […] according to the above steps and sequence, but the dose was reduced to 0.1 mg/kg body weight/each time (the cumulative dose of MIT received in the whole course of treatment was 0.3 mg/kg body weight) to reduce drug-related toxicity. The chemotherapy experiment ended at the end of the 8th week, and the mice were dissected immediately after sacrifice, and the xenograft tumors were collected and used for pathological system analysis.

[4] = PCC1 administered to mice treated with MIT

Oc1cc(O)c2c(c1)O[C@H](c1ccc(O)c(O)c1)[C@H](O)[C@H]2c1c(O)cc(O)c2c1O[C@H](c1ccc(O)c(O)c1)[C@H](O)[C@H]2c1c(O)cc(O)c2c1O[C@H](c1ccc(O)c(O)c1)[C@H](O)C2 [PCC1, procyanidin C1]
risk of death HR, PCC1 group/vehicle group (aged C57BL/6 mice; P<0.0001): 0.35
median survival period after treatment, longer than vehicle group (aged C57BL/6 mice; drug every two weeks): 64.2%
change of proliferating cells (PSC27 cells [1]): not obvious
proportion of apoptosis in senescent PSC27 cells (PSC27 cells [1]): significantly increased
viability of senescent PSC27 cells (PSC27 cells [1]): significantly reduced
survival of proliferating cells (PSC27 cells [2]; proliferating PSC27, 200 μM PCC1): not significantly reduced
percentage of surviving senescent cells (PSC27 cells [2]; senescent PSC27, 200 μM PCC1): approximately 10%
concentration from which significant death of senescent cells is induced (PSC27 cells [2]; senescent vs control proliferating cells, CCK8): 50 µM
reduction in tumor volume compared with MIT [3, 4]: 55.2%
reduction in tumor volume compared with placebo treatment [3, 4]: 74.9%
reduction in tumor size compared to placebo ([3]; single agent, i.p.): did not cause tumor shrinkage
